Here are results for four molecules from publication PMC6684226, “Neuropeptide B mediates female sexual receptivity in medaka fish, acting in a female-specific but reversible manner” (eLife, 2019).

Experiment [1] has as its system npbb expression in Vs/Vp and PMm/PMg/PPp. As to the kind of experiment: npbb expression in brain nuclei of gonad-intact medaka after immersion drug treatment (in situ hybridization). Format: in vivo, medaka (Oryzias latipes). The note with it: n = 5. The source says:
(§1) DNA fragments of 645 bp, 647 bp, and 1520 bp corresponding to nucleotides 1–645 of the medaka npba cDNA (GenBank accession number NM_001308979), 1–647 of the medaka npbb EST clone of National BioResource Project (NBRP) Medaka (http://www.shigen.nig.ac.jp/medaka/) (clone ID: olova57o22), and 1699–3218 of the medaka npbwr2 cDNA (deposited in DDBJ/EMBL/GenBank with accession number LC375958), respectively, were PCR-amplified and subcloned into the pGEM-Teasy vector (Promega, Madison, WI). The resultant constructs were used to generate digoxigenin (DIG)-labeled cRNA probes for npba, npbb, and npbwr2 by using the DIG RNA Labeling Mix and T7 RNA polymerase (Roche Diagnostics). The procedure for in situ hybridization has been described previously ([Hiraki et al., 2012]). In brief, the brain, pituitary, and/or spinal cord were fixed in 4% paraformaldehyde (PFA), embedded in paraffin, and cut into 10 μm sections in the coronal plane. Hybridization signals were visualized by using alkaline phosphatase-conjugated anti-DIG antibody (Roche Diagnostics) and 5-bromo-4-chloro-3-indolyl phosphate/nitro blue tetrazolium (BCIP/NBT) substrate (Roche Diagnostics). Color development was allowed to proceed overnight or was stopped after 2–3 hr (for quantification of npba expression in Vs/Vp) or 15–30 min (for quantification of npba expression in PMm/PMg) to avoid saturation. All sections in each comparison were processed simultaneously under the same conditions.
(§2) To obtain quantitative data, the number of npba/npbb-expressing neurons in each brain nucleus or each brain/spinal cord region was counted manually. In some analyses, the resulting sections were photographed and converted to black and white binary images by thresholding using Adobe Photoshop (Adobe Systems, San Jose, CA), and the total area of npba/npbb expression was calculated by using ImageJ (http://rsbweb.nih.gov/ij/). The threshold was set manually by visual inspection of the images to successfully separate specific signals from background noise. Brain nuclei were identified by using medaka brain atlases ([Anken and Bourrat, 1998]; [Ishikawa et al., 1999]); http://www.shigen.nig.ac.jp/medaka/medaka_atlas/), supplemented with information from our Nissl-stained sections ([Kawabata et al., 2012]).
(§3) In another experiment, females with intact ovaries were treated with 100 ng/ml of KT or AI (Fadrozole; Sigma-Aldrich, St. Louis, MO) by immersion in water for 9 days. […] These fish were sampled on days 0 (untreated controls), 2, 5, and 9. The sex steroid concentration used was based on previously reported serum steroid levels in medaka ([Foran et al., 2002]; [Foran et al., 2004]; [Tilton et al., 2003]).

In experiment [2] the test system is npba expression in the whole brain. As to the kind of experiment: npba expression in whole brain of ovariectomized ΔERE mutant females treated with E2 (real-time PCR). It is filed as in vivo, medaka (Oryzias latipes). The note with it: OVX + 100 ng/ml E2, 6 days, n = 6 per group. On the technique in general: Quantitative PCR measures a nucleic acid by following its amplification.

In experiment [3] the test system is npbb expression in Vs/Vp and PMm/PMg/PPp. As to the kind of experiment: npbb expression in brain nuclei of gonadectomized medaka after sex steroid supplementation (in situ hybridization). It is filed as in vivo, medaka (Oryzias latipes). The note with it: n = 5. The source says: DNA fragments of 645 bp, 647 bp, and 1520 bp corresponding to nucleotides 1–645 of the medaka npba cDNA (GenBank accession number NM_001308979), 1–647 of the medaka npbb EST clone of National BioResource Project (NBRP) Medaka (http://www.shigen.nig.ac.jp/medaka/) (clone ID: olova57o22), and 1699–3218 of the medaka npbwr2 cDNA (deposited in DDBJ/EMBL/GenBank with accession number LC375958), respectively, were PCR-amplified and subcloned into the pGEM-Teasy vector (Promega, Madison, WI). The resultant constructs were used to generate digoxigenin (DIG)-labeled cRNA probes for npba, npbb, and npbwr2 by using the DIG RNA Labeling Mix and T7 RNA polymerase (Roche Diagnostics). […] Color development was allowed to proceed overnight or was stopped after 2–3 hr (for quantification of npba expression in Vs/Vp) or 15–30 min (for quantification of npba expression in PMm/PMg) to avoid saturation. […]
To obtain quantitative data, the number of npba/npbb-expressing neurons in each brain nucleus or each brain/spinal cord region was counted manually. In some analyses, the resulting sections were photographed and converted to black and white binary images by thresholding using Adobe Photoshop (Adobe Systems, San Jose, CA), and the total area of npba/npbb expression was calculated by using ImageJ (http://rsbweb.nih.gov/ij/). […]

Experiment [4] has as its system npba expression in Vs/Vp and PMm/PMg. The experiment can be described thus: npba expression in brain nuclei of gonad-intact medaka after immersion drug treatment (in situ hybridization). Format: in vivo, medaka (Oryzias latipes). The note with it: ovary-intact adult females, n = 5.
Excerpt: as §1, §2, §3

For experiment [5], the system named is estradiol-17β (E2) in the brain. As to the kind of experiment: Brain levels of E2 in KT-treated females (LC-MS/MS). It is filed as in vivo, medaka (Oryzias latipes). The note with it: females treated with 100 ng/ml KT by immersion; within 2 days, low during remainder of treatment; n = 4 per sampling day; p<0.0001 on days 2, 5, and 9. Here is the method:
as §3
Dissected whole brains were frozen and stored at −80°C until analysis. Levels of E2 in the brains were analyzed by liquid chromatography coupled to tandem mass spectrometry (LC-MS/MS) at Aska Pharmamedical (Kanagawa, Japan).

The subject of experiment [6] is npba expression in Vs/Vp and PMm/PMg. The note with it: estrogen replacement, ref Hiraki et al., 2014; cited from earlier work. The source says: We determined whether the sexual phenotype of npba expression can be reversed from the female to the male pattern, and vice versa, by altering the adult sex steroid milieu. […] Here, we first tested whether npba expression in these brain nuclei can be induced in males by castration and sex steroid supplementation.

Experiment [7] concerns ER expression in Vs/Vp and PMm/PMg. The note with it: males treated with estrogen; ref Hiraki et al., 2012; cited from earlier work. The source says: Importantly, our results provide insight into the mechanisms underlying the reversal of sexually dimorphic npba expression. […] Considering these findings, it seems plausible that this estrogen-induced npba expression is not fully realized until sufficient ER expression is achieved.

The subject of another experiment is Cckar expression. The note with it: ref Xu et al., 2012, cited from earlier work. The source says:
Another distinctive aspect of npba expression is the bidirectional reversibility of sexual dimorphism (both from female-typical to male-typical pattern and from male-typical to female-typical pattern). […] In mice, for example, the cholecystokinin receptor gene (Cckar) implicated in female sexual receptivity is expressed in the ventr ...

Experiment [8] has as its system npba expression in Vs/Vp and PMm/PMg. Also noted: method as in Kikuchi et al., 2019. The note with it: adult males treated with estrogen; ref Kikuchi et al., 2019; cited from earlier work.

On to `C[C@]12CC[C@@H]3c4ccc(O)cc4CC[C@H]3[C@@H]1CC[C@@H]2O` [E2, estradiol-17β], for which the “npbb-expressing neurons in Vs/Vp” value in experiment [1] (testis-intact adult males, 100 ng/ml E2 by immersion, p=0.0369) is “a few npbb-expressing neurons were newly induced in Vs/Vp”. In addition, the “npba expression in the whole brain, mutant versus wild-type females” value in experiment [2] (p=0.0023) is on record as “not able to restore npba expression to the level present in wild-type females”. In experiment [2] (ΔERE mutant females), the “npba expression in the whole brain after ovariectomy and E2 treatment” value is on record as “restored by E2 treatment”. Besides, the “npbb-expressing neurons in Vs/Vp of castrated males” value in experiment [3] (castrated adult males, 100 ng/ml E2, 6 days, p<0.0001) is recorded as “induced a few npbb-expressing neurons in Vs/Vp”.

For `N#Cc1ccc(C2CCCc3cncn32)cc1` (stereo not drawn) [AI, Fadrozole], the “number of npba-expressing neurons in Vs/Vp (compared with KT treatment)” value in experiment [4] (100 ng/ml AI by immersion, p<0.0001 on days 2, 5, and 9) was “essentially the same results”. Moreover, the “total area of npba expression in Vs/Vp (compared with KT treatment)” value in experiment [4] (100 ng/ml AI by immersion, p=0.0063 and 0.0025 on days 5 and 9) was “essentially the same results”. For the same molecule, the “total area of npba expression in PMm/PMg (compared with KT treatment)” value in experiment [4] (100 ng/ml AI by immersion, p=0.0108 on day 9) is listed as “essentially the same results”. Besides, the “npbb expression in PMm/PMg/PPp (significant decrease)” value in experiment [1] (ovary-intact adult females, 100 ng/ml AI by immersion, 9 days) is on record as “not AI treatment”. The “number of npbb-expressing neurons in Vs/Vp” value in [1] (ovary-intact adult females, 100 ng/ml AI by immersion, p=0.0002 and <0.0001 on days 5 and 9) is on record as “undetectable or nearly undetectable levels”. In experiment [1] (ovary-intact adult females, 100 ng/ml AI by immersion, p=0.0013 and 0.0009 on days 5 and 9), the “total area of npbb expression in Vs/Vp” value is on record as “undetectable or nearly undetectable levels”.

In the case of `C[C@]12CC(=O)[C@H]3[C@@H](CCC4=CC(=O)CC[C@@]43C)[C@@H]1CC[C@@H]2O` [KT, 11-ketotestosterone], in experiment [4] (100 ng/ml KT by immersion, 9 days), the “number of npba-expressing neurons in PMm/PMg” value is given as “unchanged”. Besides, in experiment [4] (100 ng/ml KT by immersion, 9 days, p=0.0002 on day 2, p<0.0001 on days 5 and 9), the “total area of npba expression in Vs/Vp” value is “undetectable or nearly undetectable levels”. In addition, in [4] (100 ng/ml KT by immersion, days 0, 2, 5, 9, p<0.0001 on days 5 and 9 versus day 0), the “number of npba-expressing neurons in Vs/Vp” value was “undetectable or nearly undetectable levels”. Further, in experiment [4] (100 ng/ml KT by immersion, p=0.0068 on day 9), the “total area of npba expression in PMm/PMg” value was “significant decline”. Also, in experiment [5], the “brain E2 levels, percent of untreated controls” value is listed as “less than 5%”. Besides, the “npbb expression in PMm/PMg/PPp” value in experiment [1] (ovary-intact adult females, 100 ng/ml KT by immersion, number of neurons p=0.0038 on day 9, total area p=0.0021 and <0.0001 on days 5 and 9) is given as “significant decrease”. For the same molecule, the “number of npbb-expressing neurons in Vs/Vp” value in experiment [1] (ovary-intact adult females, 100 ng/ml KT by immersion, p<0.0001 on days 5 and 9) is on record as “undetectable or nearly undetectable levels”. Further, in [1] (ovary-intact adult females, 100 ng/ml KT by immersion, p=0.0235, <0.0001, <0.0001 on days 2, 5, and 9), the “total area of npbb expression in Vs/Vp” value is listed as “undetectable or nearly undetectable levels”. The “npbb expression in Vs/Vp and PMm/PMg/PPp after ovariectomy (restoration)” value in experiment [3] (ovariectomized adult females, 100 ng/ml KT, 6 days) was “not by KT”.

Take estrogen: the “npba expression in Vs/Vp and PMm/PMg of ovariectomized females” value in experiment [6] was “restored by estrogen replacement”. Further, in [7], the “ER expression in Vs/Vp and PMm/PMg of males” value is reported as “induces ER expression”. The “Cckar expression in ventromedial nucleus of the hypothalamus, males” value in the experiment on Cckar expression (adult males treated with estrogen) is recorded as “does not induce expression of Cckar”. Moreover, the “Cckar expression in ventromedial nucleus of the hypothalamus, females” value with Cckar expression (ovariectomized adult females treated with estrogen) is “reinstated by treatment with estrogen”. Further, the “emergence of Npba-expressing neurons in adult males” value in experiment [8] is on record as “emerged in adult males treated with estrogen”.
